Laboratory results taken from PMC10082216 (Nature Communications, 2023).

Columns and labels:
female gametocytes = assay: 384-well microsphiltration readout 2 (anti-pfs25): retention of female gametocytes; format: cell-based; conditions: Plasmodium falciparum, read-out: IC50 during the screening campaign, only females stained
Experimental: Large scale microsphiltration was performed as previously described. Briefly, microsphiltration plates were prepared using a Biomek NX workstation (Beckman, cat. no. 989402) to load 15 μl of 25–45μm microspheres then 10 μl of a mixture of 30% 5–15μm and 70% (w/w) 15–25μm microspheres. The 384-well filter plates were then stored at -20 °C until use. In some of the 384-well microsphiltration plates leakage of microspheres occurred in one or more wells. The wells with leakages were sealed. Plates displaying more than 5 sealed wells were not used. Imaging plates were prepared by loading 30 μL of staining solution in each well of a collagen-coated plate. A different staining solution was used for each readout (1 and 2). Readout 1 counted both male and female gametocytes, using nucleic acid (Syto40, Thermo Fisher cat. no. S11351) and viability (MitoTracker Deep Red, Thermo Fisher cat. no. M22426) staining, and total RBCs using a cell membrane stain (CellMask Orange, Thermo Fisher cat. no. C10045). Readout 2 selectively quantified the retention and killing of female gametocytes. […] Imaging plates were incubated overnight at room temperature, then read in an OperaPhenix high-content confocal imaging system (Perkin Elmer, Waltham, MA, USA) and analyzed with Harmony high-content analysis software v. […]

[1] = Population PK modeling and simulation of TD-6450 (NONMEM); design: species or system human
Excerpt: Data were pooled from two healthy volunteer studies, one single ascending dose (SAD) and the other multiple ascending dose (MAD). Observed concentration data were transformed into their natural logarithms and evaluated using nonlinear mixed-effects modeling in NONMEM v7.4 (Icon Development Solution, Ellicott City, MD). Pirana v3.0, Perl-speaks-NONMEM (PsN) v4.8.1, and Xpose version 4.7.1, were used for automation, model evaluation, and diagnostics during the model building process.
Different structural distribution models were evaluated (1-, 2-, and 3-compartment models) as well as different absorption models (first-order absorption and transit-compartment (n = 1–10) models). Relative bioavailability was fixed to unity for the population to evaluate inter-individual variability and the influence of covariates in the same parameter. […] Other biologically plausible covariate-parameter relationships (i.e. sex and age on all parameters, dose amount and duration of treatment on elimination clearance, absorption rate and relative bioavailability, concomitant food intake on absorption rate and relative bioavailability, and creatinine clearance on elimination clearance) were evaluated with a stepwise addition (p < 0.05) and elimination (p < 0.001) approach. All significant covariates in the forward step were evaluated with both linear and nonlinear functions, and the best-performing model was retained for the backward elimination step. Pharmacokinetic parameters were assumed to be log-normally distributed, and inter-individual variability (IIV) and inter-occasion variability (IOV) were implemented as exponential functions. Estimated IIV below 10% was removed in the final model, and IOV was estimated only on absorption parameters.
Model fit was evaluated primarily by the objective function value (OFV; calculated by NONMEM as proportional to −2 × log-likelihood of the data). Model discrimination between two hierarchical models was determined by a likelihood ratio test, based on the Chi-square distribution of the OFV (i.e. p-value < 0.05 corresponding to ΔOFV > 3.84, at a 1 degree of freedom difference). Goodness-of-fit was used to evaluate the descriptive performances of developed models. Prediction- and variability-corrected visual predictive checks (pvcVPC, n = 2000 simulations) were used to assess the predictive performance of developed models.

[2] = random effect, variance estimate
[3] = residual error, variance estimate
[4] = typical individual 80 kg, steady-state, high oral dose, fasting

**Q.** Which results are given for CNC(=O)N1C[C@@H](C)N(c2ccc(C(=O)Nc3ccc(-c4ccc(-c5c[nH]c([C@@H]6CCCN6C(=O)[C@@H](NC(=O)OC)C(C)C)n5)cc4)c(OC(F)(F)F)c3)cn2)C[C@@H]1C [TD-6450]?
**A.** IC50 (female gametocytes): 2030 ± 350 nM; decrease in relative bioavailability per 100 mg increase in dose ([1]; above 240 mg (240 to 500 mg)): 24.7%; Dose on CL/F, population estimate (%RSE) ([1]; covariate relationship): 1.35 (17.9); Dose on F, SIR median (95%CI) ([1]; covariate relationship): -0.241 (-0.207 to -0.284); Dose on F, population estimate (%RSE) ([1]; covariate relationship): -0.247 (7.92); Food on F, SIR median (95%CI) ([1]; covariate relationship): 0.683 (0.475 to 0.885); Food on F, population estimate (%RSE) ([1]; covariate relationship): 0.685 (15.0); Food on MTT, SIR median (95%CI) ([1]; covariate relationship): 0.927 (0.696 to 1.19); Food on MTT, population estimate (%RSE) ([1]; covariate relationship): 0.933 (10.3); Time dep. F, SIR median (95%CI) ([1]; covariate relationship): 0.441 (0.355 to 0.569); Time dep. F, population estimate (%RSE) ([1]; covariate relationship): 0.439 (12.5); higher bioavailability when administered with food ([1]; food covariate): 68.5%; longer absorption time when administered with food ([1]; food covariate): 93.3%; IIV CL/F, population estimate (%RSE) [1, 2]: 0.0148 (21.5); IIV F, SIR median (95%CI) [1, 2]: 0.151 (0.110 to 0.207); IIV F, population estimate (%RSE) [1, 2]: 0.150 (16.7); IIV MTT, SIR median (95%CI) [1, 2]: 0.0683 (0.0551 to 0.0830); IIV MTT, population estimate (%RSE) [1, 2]: 0.0683 (10.3); IIV Vc/F, SIR median (95%CI) [1, 2]: 0.0394 (0.0246 to 0.0514); IIV Vc/F, population estimate (%RSE) [1, 2]: 0.0391 (17.3); IIV Vp/F, SIR median (95%CI) [1, 2]: 0.0719 (0.0568 to 0.0919); IIV Vp/F, population estimate (%RSE) [1, 2]: 0.0713 (12.9); IOV F, SIR median (95%CI) [1, 2]: 0.0622 (0.0445 to 0.0794); IOV F, population estimate (%RSE) [1, 2]: 0.0631 (13.9); IOV MTT, SIR median (95%CI) [1, 2]: 0.0870 (0.0613 to 0.118); IOV MTT, population estimate (%RSE) [1, 2]: 0.0866 (17.1); RUV, SIR median (95%CI) [1, 3]: 0.0568 (0.0520 to 0.0624); RUV, population estimate (%RSE) [1, 3]: 0.242 (4.48); CL/F, SIR median (95%CI) ([1]; sampling importance resampling): 12.1 (10.8 to 13.6) L/h; MTT, SIR median (95%CI) ([1]; sampling importance resampling): 2.30 (2.13 to 2.50) h; Q/F, SIR median (95%CI) ([1]; sampling importance resampling): 28.5 (22.5 to 35.5) L/h; Vc/F, SIR median (95%CI) ([1]; sampling importance resampling): 539 (464 to 626) L; Vp/F, SIR median (95%CI) ([1]; sampling importance resampling): 445 (384 to 513) L; CL/F, population estimate (%RSE) [1, 4]: 12.1 (6.19) L/h; MTT, population estimate (%RSE) [1, 4]: 2.30 (4.14) h; Q/F, population estimate (%RSE) [1, 4]: 28.4 (11.4) L/h; Vc/F, population estimate (%RSE) [1, 4]: 537 (7.89) L; Vp/F, population estimate (%RSE) [1, 4]: 444 (7.36) L
